# Measured values reported in patent publication US20230002736A1, “ENDODERM DIFFERENTIATION FROM PLURIPOTENT STEM CELL LINES” (priority 2019, published 2023).
# Tested on: iPSC-derived hepatocytes
# Assay: RNA Sequencing of iPSCs fully differentiated to hepatocytes
# Format: cell-based, human
# Conditions: 5 paired iPSCs, doxycycline during endoderm phase
# Description: Differentiation of Definitive Endoderm to hepatocytes (days 8-23). iPSC-derived human endoderm prepared as described herein was cultured continuously on Matrigel or split 1:2 onto Matrigel plates for hepatic differentiation. Definitive endoderm (DE) was cultured in Iscove's modified Dulbecco's medium (Gibco catalog #supplemented with Gem21 NeuroPlex without insulin (Gemini Bio-Products catalog #400-962), Glutagro, non-essential amino acids (1×, Gibco catalog #11-140-050), 0.3 mM monothioglycerol, 5 μg/mL human insulin (Sigma), and 100 nM dexamethasone. To induce hepatoblasts, cells were treated with FGF2 (10 ng/mL) and BMP4 (20 ng/mL) for 5 days. During this phase, cells can be passaged using accutase and split at least 2 to 4× to increase yield and quality of final product again onto Matrigel with the addition of 10 μM Y-27632 and 2 μM doxycycline to increase cell survival during accutase treatment and splitting. This phase and the next were grown at low oxygen (4-6%) and 5% CO2. […]
# RNA isolation, Real-Time PCR analysis, and RNA Sequencing. […] Quantitative Real-Time PCR was performed using FastStart Universal SYBR Green, Roche Diagnostics (Indianapolis, IN). […] On average, 27,642,407 raw reads were obtained and mapped. Raw reads were subjected to quality control. Clean reads were analyzed by Gene Ontology analysis, KEGG pathway enrichment, and cluster analysis. […]
smiles,measurement,value
C[C@H]1c2cccc(O)c2C(=O)C2=C(O)[C@]3(O)C(=O)C(C(N)=O)=C(O)[C@@H](N(C)C)[C@@H]3[C@@H](O)[C@@H]21 [doxycycline],effect on final iPSC-derived hepatocytes (principal component analysis),did not alter the final product
